Measurements reported in ChEMBL document CHEMBL1144403, “Novel immunomodulator FTY720 is phosphorylated in rats and humans to form a single stereoisomer. Identification, chemical proof, and biological characterization of the biologically active species and its enantiomer” (J Med Chem, 2005).

How the values were obtained:
Format in all cases: functional, cell-based
[1] = molecular target: T1, Sphingosine 1-phosphate receptor 4 (Homo sapiens, UniProt O95977); test: Agonism of human S1P-4 receptor expressed in CHO cells, 90-120 min in pH 7.4 using [35S]GTP-gamma-S as radioligand
T1 sequence (O95977 whole entry): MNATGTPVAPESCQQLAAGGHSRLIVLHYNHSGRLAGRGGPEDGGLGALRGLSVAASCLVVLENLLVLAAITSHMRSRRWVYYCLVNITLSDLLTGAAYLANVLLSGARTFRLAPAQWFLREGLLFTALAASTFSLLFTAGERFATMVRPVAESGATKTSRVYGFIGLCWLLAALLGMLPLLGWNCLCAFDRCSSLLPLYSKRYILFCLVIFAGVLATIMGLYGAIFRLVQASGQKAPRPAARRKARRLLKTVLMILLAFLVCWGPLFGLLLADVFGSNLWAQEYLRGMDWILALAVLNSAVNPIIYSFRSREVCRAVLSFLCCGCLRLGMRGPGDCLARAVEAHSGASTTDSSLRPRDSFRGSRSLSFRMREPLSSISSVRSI

[2] = molecular target: Sphingosine 1-phosphate receptor 2 (Homo sapiens, UniProt O95136); test: Agonism of human S1P-2 receptor expressed in CHO cells, 90-120 min in pH 7.4 using [35S]GTP-gamma-S as radioligand
Chain of Sphingosine 1-phosphate receptor 2 (O95136 whole entry): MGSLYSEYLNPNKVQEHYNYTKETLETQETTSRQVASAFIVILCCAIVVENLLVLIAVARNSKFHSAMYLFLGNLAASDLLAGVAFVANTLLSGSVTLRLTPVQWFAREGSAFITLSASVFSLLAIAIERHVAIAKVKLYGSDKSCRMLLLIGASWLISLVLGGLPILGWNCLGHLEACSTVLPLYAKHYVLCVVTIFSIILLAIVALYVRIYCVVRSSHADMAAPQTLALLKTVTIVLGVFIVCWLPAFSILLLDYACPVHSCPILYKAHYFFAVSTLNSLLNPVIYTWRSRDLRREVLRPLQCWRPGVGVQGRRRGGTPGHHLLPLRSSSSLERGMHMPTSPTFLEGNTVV

[3] = molecular target: Sphingosine 1-phosphate receptor 3 (Homo sapiens, UniProt Q99500); test: Agonism of human S1P-3 receptor expressed in CHO cells, 90-120 min in pH 7.4 using [35S]GTP-gamma-S as radioligand
Chain of Sphingosine 1-phosphate receptor 3 (Q99500 whole entry): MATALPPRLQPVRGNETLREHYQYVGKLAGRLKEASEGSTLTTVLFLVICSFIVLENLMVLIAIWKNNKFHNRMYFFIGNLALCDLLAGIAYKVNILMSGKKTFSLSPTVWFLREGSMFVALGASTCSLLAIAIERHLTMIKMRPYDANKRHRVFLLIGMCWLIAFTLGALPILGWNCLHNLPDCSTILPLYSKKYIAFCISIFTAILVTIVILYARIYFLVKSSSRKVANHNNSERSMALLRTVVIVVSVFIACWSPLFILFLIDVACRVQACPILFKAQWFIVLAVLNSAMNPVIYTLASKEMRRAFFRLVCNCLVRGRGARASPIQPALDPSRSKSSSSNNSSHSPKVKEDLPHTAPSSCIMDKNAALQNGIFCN

[4] = molecular target: Sphingosine 1-phosphate receptor 5 (Homo sapiens, UniProt Q9H228); test: Agonism of human S1P-5 receptor expressed in CHO cells, 90-120 min in pH 7.4 using [35S]GTP-gamma-S as radioligand
Chain of Sphingosine 1-phosphate receptor 5 (Q9H228 whole entry): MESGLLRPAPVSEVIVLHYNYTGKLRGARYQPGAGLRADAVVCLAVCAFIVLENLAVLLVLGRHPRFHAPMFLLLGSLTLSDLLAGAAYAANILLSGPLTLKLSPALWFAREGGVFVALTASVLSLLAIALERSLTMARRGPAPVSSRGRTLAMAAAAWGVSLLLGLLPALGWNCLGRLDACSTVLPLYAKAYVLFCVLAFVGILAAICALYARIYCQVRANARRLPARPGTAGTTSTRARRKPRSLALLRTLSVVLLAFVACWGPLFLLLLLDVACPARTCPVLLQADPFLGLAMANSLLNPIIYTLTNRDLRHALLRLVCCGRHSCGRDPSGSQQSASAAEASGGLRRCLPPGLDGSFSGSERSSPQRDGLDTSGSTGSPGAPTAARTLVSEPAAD

SMILES	EC50 [1]	EC50 [2]	EC50 [3]	EC50 [4]
CCCCCCCCc1ccc(CC[C@@](N)(CO)COP(=O)(O)O)cc1	80.1 nM	–	–	–
CCCCCCCCc1ccc(CCC(N)(CO)CO)cc1 [FINGOLIMOD]	> 10000 nM	> 10000 nM	> 10000 nM	> 10000 nM
CCCCCCCCc1ccc(CC[C@](N)(CO)COP(=O)(O)O)cc1 [FTY720-P]	0.6 nM	–	–	–
CCCCCCCCc1ccc(CCC(N)(CO)COP(=O)(O)O)cc1 (racemic)	2.4 nM	–	–	–
